The values below come from patent US11111251B2, “Positive allosteric modulators of the muscarinic acetylcholine receptor M1” (Vanderbilt University, priority 2016, dated 2021).

Like-named read-outs stand apart in the source and are kept apart here.

For the assay, the target named is T1, human mAChR M1 (Homo sapiens, UniProt P11229).
T1 sequence (P11229 1-460): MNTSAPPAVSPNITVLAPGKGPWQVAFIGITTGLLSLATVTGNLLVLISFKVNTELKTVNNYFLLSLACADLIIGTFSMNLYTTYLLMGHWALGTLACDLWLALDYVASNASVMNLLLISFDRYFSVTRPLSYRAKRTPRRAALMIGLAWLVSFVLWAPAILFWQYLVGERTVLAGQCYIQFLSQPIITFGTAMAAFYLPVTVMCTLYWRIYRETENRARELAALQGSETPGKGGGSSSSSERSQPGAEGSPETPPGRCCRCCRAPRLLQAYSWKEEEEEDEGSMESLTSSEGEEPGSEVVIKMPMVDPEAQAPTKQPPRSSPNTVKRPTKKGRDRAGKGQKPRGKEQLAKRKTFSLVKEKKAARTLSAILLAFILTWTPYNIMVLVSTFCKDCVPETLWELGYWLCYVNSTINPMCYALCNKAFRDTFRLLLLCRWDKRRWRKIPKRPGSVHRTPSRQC
Briefly: mAChR M1 cell-based functional assay: calcium mobilization, positive allosteric modulator mode (increase in EC20 acetylcholine response). Conditions: for Emax: read-out: Human M1 Emax (%). An excerpt: a. Cell Lines Expressing Muscarinic Acetylcholine Receptors
Chinese hamster ovary (CHO-K1) cells stably expressing rat (r)M1 were purchased from the American Type Culture Collection and cultured according to their indicated protocol. CHO cells stably expressing human (h)M2, hM3, and hM5 were described previously (Levey, et al., 1991); hMi and hM4 cDNAs were purchased from Missouri S&T cDNA Resource; rM4 cDNA was provided by T. I. Bonner (National Institutes of Health, Bethesda, Md.). rM2 and rM3 were cloned from a rat brain cDNA library and sequence verified. hMi, rM2, rM3, hM4, and rM4 cDNAs were used to stably transfect CHO-K1 cells purchased from the American Type Culture Collection using Lipofectamine2000. To make stable rM2, hM2, rM3, hM4, and rM4 cell lines for use in calcium mobilization assays, these cells also were stably transfected with a chimeric G-protein (Gqi5) (provided by B. R. Conklin, University of California, San Francisco) using Lipofectamine 2000. rMi, hMi, rM3, hM3, rM5, and hM5 cells were grown in Ham's F-12 medium containing 10% heat-inactivated fetal bovine serum (FBS), 20 mM HEPES, and 50 μg/mL G418 sulfate. rM2-Gqi5, hM2-Gqi5, and hM4-Gqi5 cells were grown in the same medium also containing 500 μg/mL Hygromycin B. Stable rM4-Gqi5 cells were grown in DMEM containing 10% heat-inactivated FBS, 20 mM HEPES, 400 μg/mL G418 sulfate, and 500 μg/mL Hygromycin B.
b. Cell-Based Functional Assay of Muscarinic Acetylcholine Receptor Activity
For high throughput measurement of agonist-evoked increases in intracellular calcium, CHO-K1 cells stably expressing muscarinic receptors were plated in growth medium lacking G418 and hygromycin at 15,000 cells/20 μL/well in Greiner 384-well black-walled, tissue culture (TC)-treated, clear-bottom plates (VWR). Cells were incubated overnight at 37° C. and 5% CO2. The next day, cells were washed using an ELX 405 (BioTek) with four washes (80 μL) of assay buffer then aspirated to 20 μL. Next, 20 μL of 16 μM Fluo-4/acetoxymethyl ester (Invitrogen, Carlsbad, Calif.) prepared as a 2.3 mM stock in DMSO and mixed in a 1:1 ratio with 10% (w/v) Pluronic F-127 and diluted in assay buffer was added to the wells and the cell plates were incubated for 50 min at 37° C. and 5% CO2. Dye was removed by washing with the ELX 405 (four […], washes of assay buffer) then aspirated to 20 μL. Compound master plates were formatted in an 11 point CRC format (1:3 dilutions) in 100% DMSO with a starting concentration of 10 mM using the BRAVO liquid handler (Agilent). Test compound CRCs were then transferred to daughter plates (240 nL) using the Echo acoustic plate reformatter (Labcyte, Sunnyvale, Calif.) and then diluted into assay buffer (40 μL) to a 2× stock using a Thermo Fisher Combi (Thermo Fisher Scientific, Waltham, Mass.).
Calcium flux was measured using the Functional Drug Screening System (FDSS) 6000 (Hamamatsu Corporation, Tokyo, Japan) as an increase in the fluorescent static ratio. Compounds were applied to cells (20 μL, 2×) using the automated system of the FDSS 6000 at 4 s into the 300 s protocol and the data were collected at 1 Hz. At 144 s into the 300s protocol, 10 μL of an EC20 concentration of the muscarinic receptor agonist acetylcholine was added (5×), followed by the addition of 12 μL an EC80 concentration of acetylcholine at the 230 s time point (5×). Agonist activity was analyzed as a concentration-dependent increase in calcium mobilization upon compound addition. Positive allosteric modulator activity was analyzed as a concentration-dependent increase in the EC20 acetylcholine response. Antagonist activity was analyzed as a concentration-dependent decrease in the EC80 acetylcholine response. Concentration-response curves were generated using a four-parameter logistical equation in XLfit curve fitting software (IDBS, Bridgewater, N.J.) for Excel (Microsoft, Redmond, Wash.) or Prism (GraphPad Software, Inc., San Diego, Calif.).
(A change in cytosolic calcium serves as a functional read-out for many receptors and channels.)

[1] abbreviates: Table 2, human M1, read-out: Human M1 EC50.

The EC50 is the midpoint of the concentration-response curve. A word on the Emax: it is the maximal effect, on the per cent scale that the assay sets. In the case of `CC1COCCC1NC(=O)c1cc(Cc2ccc(-c3nccs3)cc2)c2sccc2n1` (stereo not drawn) [Compound 370, N-(3-methyltetrahydropyran-4-yl)-7-[(4-thiazol-2-ylphenyl)methyl]thieno[3,2-b]pyridine-5-carboxamide], under setting [1], the EC50 is 400 nM. Also, the Emax (Table 2, human M1) was found to be 77.7%.
The like results for `Cc1ncc(Cc2cc(C(=O)N[C@@H]3CCC[C@H]3O)nc3ccsc23)cn1` [Compound 125] were, in that order, more than 10000 nM and 59.1%.
Consider `Cn1ncc2nc(C(=O)N[C@H]3CCOC[C@@H]3O)cc(Cc3ccc(-n4cccn4)cc3)c21` [Compound 499, N-[(3R,4S)-3-hydroxytetrahydropyran-4-yl]-1-methyl-7-[(4-pyrazol-1-ylphenyl)methyl]-pyrazolo[4,3-b]pyridine-5-carboxamide], for which the EC50 under setting [1] was 267 nM. Moreover, the Emax (Table 2, human M1) was found to be 65.3%.
For `Cc1cc2nc(C(=O)N[C@H]3CCOC[C@@H]3O)cc(Cc3ccc(-n4cccn4)cc3)c2s1` [Compound 238, N-[(3R,4S)-3-hydroxytetrahydropyran-4-yl]-2-methyl-7-[(4-pyrazol-1-ylphenyl)methyl]thieno[3,2-b]pyridine-5-carboxamide], the EC50 under setting [1] amounted to 108 nM. In addition, the Emax (Table 2, human M1) was found to be 84.7%.
Take `Cc1ccc(Cc2cc(C(=O)NC3C4CC5C[C@H]3CC(O)(C5)C4)nc3ccsc23)cn1` (stereo partly drawn) [Compound 64, N-[(1S)-5-hydroxy-2-adamantyl]-7-[(6-methyl-3-pyridyl)methyl]thieno[3,2-b]pyridine-5-carboxamide]: the EC50 under setting [1] was determined as 962 nM. The Emax (Table 2, human M1) was found to be 70.7%.
`O=C(NC[C@@H]1CCCO1)c1cc(Cc2ccc(-c3nccs3)cc2)c2sccc2n1` [Compound 389, N-[[(2S)-tetrahydrofuran-2-yl]methyl]-7-[(4-thiazol-2-ylphenyl)methyl]thieno[3,2-b]pyridine-5-carboxamide]: the EC50 under setting [1] was 345 nM. Besides, the maximum response (Emax) (Table 2, human M1) came out at 64.9%.
For `CC1(C)CC(NC(=O)c2ccc(Cc3cc(C(=O)NC4CCOC(C)(C)C4)nc4ccsc34)cc2)CCO1` (stereo not drawn) [Compound 409, N-(2,2-dimethyltetrahydropyran-4-yl)-7-[[4-[(2,2-dimethyltetrahydropyran-4-yl)carbamoyl]phenyl]methyl]thieno[3,2-b]pyridine-5-carboxamide], the EC50 under setting [1] came out at 725 nM. Moreover, the Emax (Table 2, human M1) was 68.8%.
As to `CC1(C)CC(NC(=O)c2cc(Cc3ccc(-c4cncs4)cc3)c3sccc3n2)CCO1` (stereo not drawn) [Compound 388, N-(2,2-dimethyltetrahydropyran-4-yl)-7-[(4-thiazol-5-ylphenyl)methyl]thieno[3,2-b]pyridine-5-carboxamide], the half-maximal effective concentration (EC50) under setting [1] is 846 nM. Moreover, under “Table 2, human M1”, the maximal effect (Emax) came to 67.8%.
The matching figures for `CC1CC(NC(=O)c2cc(Cc3ccc(-c4cnn(C)c4)cc3)c3sccc3n2)CC(C)O1` (stereo not drawn) [Compound 380, N-(2,6-dimethyltetrahydropyran-4-yl)-7-[[4-(1-methylpyrazol-4-yl)phenyl]methyl]thieno[3,2-b]pyridine-5-carboxamide]: 287 nM and 64.5%.
Take `Cn1ccc2nc(C(=O)N[C@H]3CCC[C@@H]3O)cc(Cc3ccc(-c4nccs4)cc3)c21` [Compound 483, N-[(1S,2S)-2-hydroxycyclopentyl]-1-methyl-7-[(4-thiazol-2-ylphenyl)methyl]pyrrolo[3,2-b]pyridine-5-carboxamide]: under setting [1], the concentration giving a half-maximal response (EC50) turned out to be 65 nM. In addition, the maximum response (Emax) (Table 2, human M1) worked out at 58.6%.
Consider `Cc1nc(-c2ccc(Cc3cc(C(=O)NC4CC(F)C4)nc4ccsc34)cc2)cs1` (stereo not drawn) [Compound 181, N-(3-fluorocyclobutyl)-7-[[4-(2-methylthiazol-4-yl)phenyl]methyl]thieno[3,2-b]pyridine-5-carboxamide], for which the EC50 under setting [1] stood at 3820 nM. Moreover, for the setting “Table 2, human M1”, the maximal effect (Emax) was 64%.
The like results for `O=C(NC12CC(C1)C2)c1cc(Cc2ccc(-c3cscn3)cc2)c2sccc2n1` [Compound 201, N-(3-bicyclo[1.1.1]pentanyl)-7-[(4-thiazol-4-ylphenyl)methyl]thieno[3,2-b]pyridine-5-carboxamide] were, in that order, more than 10000 nM and 38.5%.
On to `COCCNC(=O)c1cc(Cc2ccc(-c3nccs3)cc2)c2sccc2n1` [Compound 373, N-(2-methoxyethyl)-7-[(4-thiazol-2-ylphenyl)methyl]thieno[3,2-b]pyridine-5-carboxamide], for which the concentration giving a half-maximal response (EC50) under setting [1] was 1420 nM. For the same compound, the Emax (Table 2, human M1) worked out at 79.6%.
For the compound `Cn1ccc(-c2ccc(Cc3cc(C(=O)NCC4CCOC4)nc4ccsc34)cn2)n1` (stereo not drawn) [Compound 356, 7-[[6-(1-methylpyrazol-3-yl)-3-pyridyl]methyl]-N-(tetrahydrofuran-3-ylmethyl)thieno[3,2-b]pyridine-5-carboxamide], the EC50 under setting [1] amounted to 390 nM. Also, the Emax (Table 2, human M1) was found to be 84.8%.
As for `CN1CC(NC(=O)c2cc(Cc3ccc(-n4cccn4)cc3)c3sccc3n2)C1` [Compound 435, N-(1-methylazetidin-3-yl)-7-[(4-pyrazol-1-ylphenyl)methyl]thieno[3,2-b]pyridine-5-carboxamide], under setting [1], the half-maximal effective concentration (EC50) came out at 2290 nM. In addition, the Emax (Table 2, human M1) was 76.9%.
The matching figures for `Cn1ncc2nc(C(=O)N[C@H]3CCCC[C@@H]3O)cc(Cc3ccc(-c4cscn4)cc3)c21` [Compound 492, N-[(1S,2S)-2-hydroxycyclohexyl]-1-methyl-7-[(4-thiazol-4-ylphenyl)methyl]pyrazolo-[4,3-b]pyridine-5-carboxamide]: 504 nM and 73.3%.
`Cn1ccc(-c2ccc(Cc3cc(C(=O)NC4CCOCC4)nc4ccsc34)cc2)n1` [Compound 254, 7-[[4-(1-methylpyrazol-3-yl)phenyl]methyl]-N-tetrahydropyran-4-yl-thieno[3,2-b]pyridine-5-carboxamide]: under setting [1], the concentration giving a half-maximal response (EC50) worked out at 142 nM. Moreover, the Emax (Table 2, human M1) was 71.6%.
In the case of `Cc1ncc(Cc2cc(C(=O)NC3CCCCNC3=O)nc3ccsc23)s1` (stereo not drawn) [Compound 144, 7-[(2-methylthiazol-5-yl)methyl]-N-(2-oxoazepan-3-yl)thieno[3,2-b]pyridine-5-carboxamide], the EC50 under setting [1] was more than 10000 nM. For the same compound, the maximum response (Emax) (Table 2, human M1) came out at 50.7%.
`Cc1nc(-c2ccc(Cc3cc(C(=O)NC4CCCN(C)C4)nc4ccsc34)cc2)cs1` (stereo not drawn) [Compound 186, N-(1-methyl-3-piperidyl)-7-[[4-(2-methylthiazol-4-yl)phenyl]methyl]thieno[3,2-b]pyridine-5-carboxamide]: the EC50 under setting [1] worked out at 3290 nM. For the setting “Table 2, human M1”, the maximal effect (Emax) worked out at 74.2%.
In the case of `Cc1ccc(Oc2cc(C(=O)NC3CCCNC3=O)nc3ccsc23)cn1` (stereo not drawn) [Compound 29, 7-[(6-methyl-3-pyridyl)oxy]-N-(2-oxo-3-pipendyl)thieno[3,2-b]pyridine-5-carboxamide], the EC50 (Table 1, mAChR M1 cell-based functional assay, PAM mode, species not given, read-out: EC50) is more than 10000 nM.
